From patent publication US7062219B2, “Protein fragment complementation assays for high-throughput and high-content screening” (Odyssey Thera Inc., priority 1997, dated 2006)

What was measured:
Format in all cases: cell-based
[1] = system: p53/p53 homo-dimerization; assay: Renilla luciferase PCA (RLuc PCA) for p53/p53 in HEK293T cells
Source text: Either the wild type RLuc F1 or the mutant RLuc F1(C124A) can be used in combination with the RLuc F2 fragment provided above to generate luminescent PCAs. The following examples below show the results obtained with the wild-type RLuc fragments. The F1 and F2 fragments described above were created by oligonucleotide synthesis (Blue Heron Biotechnology, Bothell, Wash.) and were designated RL[1] (aa 1–160) and RL[2] (aa 161–311). […]
STAT1/PDK2 served as a negative control PCA. […] Isolated DNAs were quantitated and then normalized to a concentration of 50 ng/microliter.
(§1) The luciferase PCA was constructed to quantify the homo-dimerization of p53 (p53/p53 PCA) and compared to a negative control RLuc PCA (Pdk2/STAT1). […] For each sample, the luminescence released was captured over 10 seconds, with a 2 second delay after addition of substrate to the sample. Data are reported as relative luminescence units (RLU), and have not been normalized to protein content.
For each condition tested, cells were transfected in quadruplicate with 0.1 microgram of total DNA (50 ng each of RL[1]-p53 and RL[2]-p53) using Fugene transfection reagent as above. […] Drug was removed by washing two times with PBS, and cell lysates were prepared as described above prior to performing a Renilla Luciferase luminescence detection assay (Promega). […]

Pdk2:STAT1 = assay: negative control RLuc PCA (Pdk2/STAT1) in HEK293T cells; settings: 500 nM CPT for 18 hours
Source text: STAT1/PDK2 served as a negative control PCA. The full coding sequences for p53, STAT1 and PDK2 were amplified by PCR from sequence verified full-length cDNAs. The resulting PCR products were desalted, digested with appropriate restriction enzymes to allow directional cloning, and fused in-frame to either the 5′ or 3′-end of RL[1], RL[2], RL[3] or RL[4] through a linker encoding a flexible 10 amino acid peptide (GGGGS)2 (SEQ ID No.1) to assure that the orientation/arrangement of the fusions in space is optimal to bring the fluorescent protein fragments into close proximity. DNAs from recombinant constructs were isolated using Qiagen Turbo BioRobot Prep kits (Qiagen, Chatsworth, Calif.) on a Beckman FX robotic workstation (Beckman Coulter, Fullerton, Calif.). Isolated DNAs were quantitated and then normalized to a concentration of 50 ng/microliter.
as §1, with “content. […]” for “content.”

PKB/hFt1 complex = assay: GFP PCA for PKB/hFt1 in COS-1 cells, fluorometric analysis and microscopy; settings: 10% serum or 20 μg/ml insulin, 30 min
Source text: (§2) DNA Constructs. The full-length cDNAs encoding PKB, PDK1, PKCalpha, the catalytic subunit of PKA (PKAc), GSK3beta, BAD, Caspase 9 and FKHRL1 were amplified by PCR and subcloned into the eukaryotic expression vector pMT3 [Kaufman, 1989 #23], 5′ of the F[2] fragment of GFP. GFP[1] corresponds to amino acids 1 to 158 and GFP[2] to amino acids 159 to 239 of GFP and was amplified by PCR from pCMS-EGFP (Clontech). The PKB-GFP[2] fusion was also inserted in a pMT3 vector where the ampicillin resistance gene has been replaced by a chloramphenicol resistance gene (pMT3-chloramphenicol) for the purpose of the cDNA library screen. In all cases, a 10 amino acid flexible linker consisting of (GGGGS)2 (SEQ ID No.1) was inserted between the cDNA and the GFP fragments to assure that the orientation/arrangement of the fusions in space is optimal to bring the protein fragments into close proximity. […]
(§3) COS-1 cells were split in 12-well plates 24 h before transfection. […] The relative amount of reconstituted GFP, a measure of the interaction between the fused protein partners, was detected by fluorometric analysis. […] The background fluorescence intensity corresponding to non-transfected cells was subtracted from the fluorescence intensities of all of the samples. The sub-cellular location of the hFt1/PKB and hFt1/PDK1 protein-protein complexes was also determined by fluorescence microscopy in live cells. […]

PDK1/hFt1 complex = assay: GFP PCA for PDK1/hFt1 in COS-1 cells, fluorometric analysis and microscopy; settings: 10% serum or 20 μg/ml insulin, 30 min
Source text: as §2, §3

Compound	increase in luminescence relative to vehicle (0.1% DMSO) ([1]; 500 nM CPT for 18 hours, HEK293T lysates) [%]	effect on the p53/p53 interaction in the RLuc PCA (in words) ([1]; FIG. 3(B))	effect on luminescence of the negative control PCA (Pdk2:STAT1)	amount of the PKB/hFt1 complexes (fluorescence) (PKB/hFt1 complex)	subcellular location of PKB/hFt1 complexes (PKB/hFt1 complex)	amount of the PDK1/hFt1 complexes (fluorescence) (PDK1/hFt1 complex)	subcellular location of PDK1/hFt1 complexes (PDK1/hFt1 complex)
CC[C@@]1(O)C(=O)OCc2c1cc1n(c2=O)Cc2cc3ccccc3nc2-1 [camptothecin]	27	induction	no effect	–	–	–	–
insulin: insulin (Roche Diagnostics), pathway stimulus	–	–	–	increase	redistribution of the protein-protein complexes from the cytosol to the membrane	increase	redistribution of the protein-protein complexes from the cytosol to the membrane
